Experimental data as given in patent publication US9611262B2, “Substituted 2-azabicycles and their use as orexin receptor modulators” (JANSSEN PHARMACEUTICA NV, priority 2014, dated 2017).

What was measured:
rat orexin 1 receptor = rat orexin 1 receptor (Rattus norvegicus, UniProt P56718); assay: Rat orexin 1 receptor radioligand binding (competitive); details: HEK293 cells stably expressing rat orexin 1 receptor; 4 nM radioligand; averages of 2-20 runs; read-out: rOX1 Ki
Outline: (§1)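 Competition binding used HEK293 cells expressing rat OX1 or CHO cells expressing human OX1, with 4 nM final [3H]-labelled thiazolyl-oxadiazolyl-pyrrolidinyl methanone radioligand in PBS. Compounds were tested at 7 concentrations (0.1 nM–10 μM) for 60 min at room temperature, then filtered; 10 μM almorexant defined nonspecific binding. Ki was derived from the one-site IC50 and the radioligand Kd.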

human orexin 1 receptor = human orexin 1 receptor (Homo sapiens (Human), UniProt O43613); assay: Human orexin 1 receptor radioligand binding (competitive); details: CHO cells stably expressing human orexin 1 receptor; 4 nM radioligand; averages of 2-20 runs; read-out: hOX1 Ki
Outline: as §1

human orexin 2 receptor = human orexin 2 receptor (Homo sapiens (Human), UniProt O43614); assay: Human orexin 2 receptor radioligand binding ([3H]-EMPA competition); details: HEK293 stably expressing human orexin 2 receptor; 2 nM [3H]-EMPA; averages of 2-20 runs; read-out: hOX2 Ki
Outline: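 Membranes-free whole HEK293 cells stably expressing human OX2 receptor incubated with [3H]-EMPA and compound (7 concentrations, 0.1 nM–10 μM, ≤0.1% DMSO) for 60 min at room temperature; nonspecific binding with 10 μM almorexant. Filtration and scintillation counting; one-site IC50 converted to Ki using predetermined Kd, triplicates averaged over 2-20 runs.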

Sequence of human orexin 1 receptor (O43613 whole entry): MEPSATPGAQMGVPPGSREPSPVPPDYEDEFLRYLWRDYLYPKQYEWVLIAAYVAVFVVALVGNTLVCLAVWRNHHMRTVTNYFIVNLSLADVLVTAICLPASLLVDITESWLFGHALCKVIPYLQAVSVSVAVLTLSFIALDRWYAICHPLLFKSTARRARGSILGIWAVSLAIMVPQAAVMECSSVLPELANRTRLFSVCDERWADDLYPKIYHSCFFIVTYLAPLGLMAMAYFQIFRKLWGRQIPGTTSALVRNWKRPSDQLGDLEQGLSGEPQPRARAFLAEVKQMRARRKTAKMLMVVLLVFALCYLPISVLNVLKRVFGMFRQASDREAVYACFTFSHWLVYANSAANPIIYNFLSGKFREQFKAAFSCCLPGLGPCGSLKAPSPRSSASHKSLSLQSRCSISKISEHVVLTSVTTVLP
Sequence of human orexin 2 receptor (O43614 whole entry): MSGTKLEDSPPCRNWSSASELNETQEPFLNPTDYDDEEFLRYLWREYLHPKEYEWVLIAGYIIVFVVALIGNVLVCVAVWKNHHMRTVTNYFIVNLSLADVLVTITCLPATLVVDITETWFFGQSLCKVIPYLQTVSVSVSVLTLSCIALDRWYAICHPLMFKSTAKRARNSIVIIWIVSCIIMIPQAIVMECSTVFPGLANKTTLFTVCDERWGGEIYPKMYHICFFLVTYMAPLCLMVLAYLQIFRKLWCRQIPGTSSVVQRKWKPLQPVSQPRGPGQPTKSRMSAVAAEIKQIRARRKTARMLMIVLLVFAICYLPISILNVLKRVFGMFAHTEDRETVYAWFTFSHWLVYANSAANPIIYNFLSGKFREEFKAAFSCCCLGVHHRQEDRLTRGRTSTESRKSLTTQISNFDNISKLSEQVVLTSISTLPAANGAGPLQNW

Ki (rat orexin 1 receptor) [nM]	Ki (human orexin 1 receptor) [nM]	Ki (human orexin 2 receptor) [nM]	SMILES
5	5	2900	Cc1cnc(-n2nccn2)c(C(=O)N2[C@H](C)[C@H]3C[C@@H](Oc4ccc(Cl)cn4)[C@@H]2C3)c1 [Example 194, [(1R,2R,4S,5R)-5-[(5-chloro-2-pyridyl)oxy]-2-methyl-3-azabicyclo[2.2.1]heptan-3-yl]-[5-methyl-2-(triazol-2-yl)-3-pyridyl]methanone]
4	3	481	[2H]C1([2H])[C@H]2C[C@@H]([C@@H]1Oc1ccc(Cl)cn1)N(C(=O)c1cccc(F)c1-n1nccn1)[C@@H]2C [Example 197, [(1R,3R,4S,6R)-3-[(5-chloro-2-pyridyl)oxy]-2,2-dideuterio-6-methyl-5-azabicyclo[2.2.1]heptan-5-yl]-[3-fluoro-2-(triazol-2-yl)phenyl]methanone]
5	5	556	[2H]C1([2H])[C@H]2C[C@@H]([C@@H]1Oc1ccc(C(F)(F)F)cn1)N(C(=O)c1cccc(F)c1-n1nccn1)[C@@H]2C [Example 199, [(1R,3R,4S,6R)-2,2-dideuterio-6-methyl-3-[[5-(trifluoromethyl)-2-pyridyl]oxy]-5-azabicyclo[2.2.1]heptan-5-yl]-[3-fluoro-2-(triazol-2-yl)phenyl]methanone]
